One assay deals with PC3 cells. The assay can be described thus: In vitro cell proliferation assay. The assay is classed as cell-based. Particulars: Homo sapiens, PC-3; with PC3 cells. The method, then: Efficacy of Formula I compounds were measured by a cell proliferation assay employing the following protocol:
1. An aliquot of 20 μl of cell culture containing about 10^3 cells (PC3 or MDAMB361.1) in medium was deposited in each well of a 384-well, opaque-walled plate.
2. Control wells were prepared containing medium and without cells; Cells were allowed to settle overnight.
3. The compound was added to the experimental wells and incubated for 3 days.
4. The plates were equilibrated to room temperature for approximately 30 minutes.
5. A volume of CellTiter-Glo Reagent equal to the volume of cell culture medium present in each well was added.
6. The contents were mixed for 2 minutes on an orbital shaker to induce cell lysis.
7. The plate was incubated at room temperature for 20 minutes to stabilize the luminescence signal.
8. Luminescence was recorded and reported in graphs as RLU=relative luminescence units.
Alternatively, cells were seeded at optimal density in a 96 well plate and incubated for 4 days in the presence of test compound. Alamar Blue™ was subsequently added to the assay medium, and cells were incubated for 6 h before reading at 544 nm excitation, 590 nm emission. IC50 values were calculated using a sigmoidal dose response curve fit.

Assay [1] deals with mTOR enzyme (mTOR(1360-2549)+GBL) (Homo sapiens, UniProt P42345). The assay is described as follows: In vitro mTOR kinase assay (TR-FRET). The class given is biochemical. To be noted: Ki apparent, Morrison ATP-competitive tight binding equation; 8 uM ATP, 0.25 nM mTOR+GBL; read-out: activity level (Ki) in the mTOR kinase assay. The method, then: The kinase activity of mTOR enzyme is assessed by incubating purified recombinant enzyme (mTOR(1360-2549)+GBL, prepared in-house) in a reaction mixture containing ATP, MnCl2, and a fluorescently labeled mTOR substrate, e.g., GFP-4E-BP1 (Invitrogen, product #PR8808A). The reaction is stopped by an addition of a Terbium-labeled phospho-specific antibody, e.g., Tb-labeled anti-p4E-BP1 T37/T46, (Invitrogen, product #PR8835A), EDTA, and TR-FRET buffer solution (Invitrogen, Product #PR3756B). Product formation is detected by way of time-resolved fluorescence resonance energy transfer (TR-FRET), which occurs when the phosphorylated substrate and labeled antibody are in close proximity due to phospho-specific binding. Enzymatic activity is measured as an increase in TR-FRET signal using a Perkin Elmer Envision plate reader. The assay is performed in a 384-well Proxiplate Plus (Perkin Elmer. Product #6008269) using the following protocol:
Compound activity is tested in 10 point dose curves starting at the highest final concentration of 10 uM. They are serially diluted in 100% DMSO prior to further dilution with assay buffer. The reaction mixture (8 uls) containing 0.25 nM mTOR+GBL enzyme, 400 nM GFP-4E-BP1, 8 uM ATP, 50 mM Hepes pH 7.5, 0.01% Tween 20, 10 mM MnCl2, 1 mM EGTA, 1 mM DTT, 1% DMSO (+/−compound) is incubated at room temperature for 30 minutes. 8 μL of solution containing 2 nM Tb-anti-p4E-BP1 antibody & 10 mM EDTA diluted TR-FRET buffer is then added and incubated for 30 minutes to stop the reaction. The plate is scanned with the Envision plate reader. Ki values are calculated in Assay Explorer using the Morrison ATP-competitive tight binding equation for Ki apparent determination.

For assay [2], the system named is AKT serine-473 phosphorylation in PC-3 cells. The assay can be described thus: In vitro phospho-AKT serine 473 cellular assay. To be noted: Homo sapiens, 0.5 h; PC-3 cells stimulated with EGF, 30 minutes compound incubation; read-out: EC50 activity level (50% decrease of S473 AKT phosphorylation). The assay is classed as cell-based. On the procedure:
The assay measures a test compound's inhibition of AKT serine-473 phosphorylation in human prostate adenocarcinoma derived PC-3 (ATCC CRL-1435) cells that have been stimulated with epidermal growth factor (EGF).
The PC-3 cell line is maintained in RPMI1640 media supplemented with 10% FBS, 2 mM Glutamine, and 10 mM HEPES pH 7.4 at 37° C. in a 5% CO2 humidified incubator.
Cells are seeded in 384-well plates at 7,000 cells/well in 50 μl growth media. After 24 hours, growth media is removed and replaced with RPMI1640 containing no FBS. Cells are treated with 10 concentrations of test compounds or DMSO alone for controls (final DMSO concentration 0.5%) and incubated at 37° C. for 30 minutes. Cells are then stimulated for 10 minutes with 100 ng/ml EGF (final concentration). One column of controls is not stimulated with EGF to observe the signal ratio between stimulated and non-stimulated cells. After 10 minutes, compounds and stimulation media are removed and replaced with 25 μl lysis buffer containing protease inhibitors and phosphatase inhibitors. This buffer contains detergent to bring about cellular disruption. […] Following the transfer of lysate to the MSD plate, AKT in the lysate is captured on the coated antibody by incubation on a shaker at 4° C. for 16 hours. Following the capture step the plate is washed and then incubated for two hours with an antibody to S473 phosphorylated AKT which is conjugated with a Sulfo-Tag. This tag gives a signal when in proximity to the electrode on the base of the MSD plate. Binding the tagged antibody to the captured protein allow detection on a MSD reader.
The EC50 is defined as the concentration at which a given compound achieves 50% decrease of the measured levels of S473 AKT phosphorylation. EC50 values are calculated using MDL Assay Explorer 3.0.1.8 fitting a sigmoidal curve with a variable slope.

mTOR enzyme (mTOR(1360-2549)+GBL), sequence (P42345 1360-2549): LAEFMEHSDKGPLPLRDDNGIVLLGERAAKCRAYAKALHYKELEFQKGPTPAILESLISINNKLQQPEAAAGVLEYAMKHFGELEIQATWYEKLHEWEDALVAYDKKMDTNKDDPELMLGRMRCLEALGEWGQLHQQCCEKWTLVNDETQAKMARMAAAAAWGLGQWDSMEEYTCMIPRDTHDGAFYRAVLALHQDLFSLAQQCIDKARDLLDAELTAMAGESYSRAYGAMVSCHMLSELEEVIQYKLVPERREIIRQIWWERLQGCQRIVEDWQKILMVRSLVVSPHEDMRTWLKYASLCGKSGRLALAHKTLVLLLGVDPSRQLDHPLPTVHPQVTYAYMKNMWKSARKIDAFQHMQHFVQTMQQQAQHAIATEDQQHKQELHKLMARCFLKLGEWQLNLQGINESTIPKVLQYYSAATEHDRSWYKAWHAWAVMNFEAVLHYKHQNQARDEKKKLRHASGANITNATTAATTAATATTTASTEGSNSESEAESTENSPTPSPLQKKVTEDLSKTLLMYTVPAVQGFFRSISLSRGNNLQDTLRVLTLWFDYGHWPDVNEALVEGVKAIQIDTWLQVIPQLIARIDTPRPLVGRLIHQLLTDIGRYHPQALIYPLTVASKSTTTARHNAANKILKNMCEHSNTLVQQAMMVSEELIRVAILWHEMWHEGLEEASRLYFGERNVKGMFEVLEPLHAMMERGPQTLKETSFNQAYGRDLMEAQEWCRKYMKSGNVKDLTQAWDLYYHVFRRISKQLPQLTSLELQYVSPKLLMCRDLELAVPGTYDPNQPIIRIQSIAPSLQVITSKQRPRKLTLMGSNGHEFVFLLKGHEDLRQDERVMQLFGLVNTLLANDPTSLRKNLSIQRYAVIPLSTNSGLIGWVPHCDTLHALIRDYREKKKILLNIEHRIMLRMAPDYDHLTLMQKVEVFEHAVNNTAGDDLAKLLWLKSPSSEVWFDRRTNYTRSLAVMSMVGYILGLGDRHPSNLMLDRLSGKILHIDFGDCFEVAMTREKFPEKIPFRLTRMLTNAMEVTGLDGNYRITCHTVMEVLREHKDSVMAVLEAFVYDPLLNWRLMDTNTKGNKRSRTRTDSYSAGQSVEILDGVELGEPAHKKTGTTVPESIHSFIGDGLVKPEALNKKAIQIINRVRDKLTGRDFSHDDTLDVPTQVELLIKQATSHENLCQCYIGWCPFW
mTOR enzyme (mTOR(1360-2549)+GBL), sequence (Q9BVC4 whole entry partner): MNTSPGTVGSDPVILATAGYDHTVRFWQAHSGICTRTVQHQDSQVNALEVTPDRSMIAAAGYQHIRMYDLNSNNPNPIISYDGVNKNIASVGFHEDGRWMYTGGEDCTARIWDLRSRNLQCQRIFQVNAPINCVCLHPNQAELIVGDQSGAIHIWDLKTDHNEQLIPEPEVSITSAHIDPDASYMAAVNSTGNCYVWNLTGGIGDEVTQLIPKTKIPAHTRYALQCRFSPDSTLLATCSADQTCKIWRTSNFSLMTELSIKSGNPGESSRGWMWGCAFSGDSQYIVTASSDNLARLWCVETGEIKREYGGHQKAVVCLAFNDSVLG

A word on the IC50: it is the midpoint of a concentration-inhibition curve. For orientation: EC50 means the concentration giving half of the maximal effect. In the assay on PC3 cells, `CCNC(=O)Nc1ccc(-c2nc(N3CCOC[C@@H]3C)c3nc(C4(O)COC4)n(C)c3n2)cc1` [Compound 101, (S)-1-ethyl-3-(4-(8-(3-hydroxyoxetan-3-yl)-9-methyl-6-(3-methylmorpholino)-9H-purin-2-yl)phenyl)urea] gave an IC50 of 282 nM. Besides, the Ki in assay [1] amounted to 7 nM. Further, the EC50 in assay [2] is 30 nM.
In turn, `CCNC(=O)Nc1ccc(-c2nc(N3CCOC[C@@H]3C)c3nc(C4CC4)n(C)c3n2)cc1` [Compound 102, (S)-1-(4-(8-cyclopropyl-9-methyl-6-(3-methylmorpholino)-9H-purin-2-yl)phenyl)-3-ethylurea] yielded an IC50 in the assay on PC3 cells of 207 nM. For the same compound, the Ki in assay [1] worked out at 8 nM. Besides, the concentration giving a half-maximal response (EC50) in assay [2] turned out to be 37 nM.
`CCNC(=O)Nc1ccc(-c2nc(N3CCOC[C@@H]3C)c3nc(C4(O)CCOCC4)n(C)c3n2)cc1` [Compound 103, (S)-1-ethyl-3-(4-(8-(4-hydroxytetrahydro-2H-pyran-4-yl)-9-methyl-6-(3-methylmorpholino)-9H-purin-2-yl)phenyl)urea] returned a half-inhibitory concentration (IC50) in the assay with PC3 cells of 120 nM. Also, the Ki in assay [1] amounted to 5 nM. For the same compound, the EC50 in assay [2] stood at 29 nM.
In turn, `CCNC(=O)Nc1ccc(-c2nc(N3CCOC[C@@H]3C)c3nc(C4(O)CCOCC4)n(CC)c3n2)cc1` [Compound 104, (S)-1-ethyl-3-(4-(9-ethyl-8-(4-hydroxytetrahydro-2H-pyran-4-yl)-6-(3-methylmorpholino)-9H-purin-2-yl)phenyl)urea] had an IC50 with PC3 cells of 115 nM. Further, the Ki in assay [1] was 4 nM. Also, the 50% effective concentration (EC50) in assay [2] is 10 nM.
For the compound `CCNC(=O)Nc1ccc(-c2nc(N3CCOC[C@@H]3C)c3nc(C4(O)CNC4)n(C)c3n2)cc1` [Compound 105, (S)-1-ethyl-3-(4-(8-(3-hydroxyazetidin-3-yl)-9-methyl-6-(3-methylmorpholino)-9H-purin-2-yl)phenyl)urea], in assay [1], the Ki is 74 nM.
In the case of `CCNC(=O)Nc1ccc(-c2nc(N3CCOC[C@@H]3C)c3nc(C4CC4)n(CC)c3n2)cc1` [Compound 106, (S)-1-(4-(8-cyclopropyl-9-ethyl-6-(3-methylmorpholino)-9H-purin-2-yl)phenyl)-3-ethylurea], 441 nM corresponded to half-maximal inhibition in the assay with PC3 cells (IC50). The Ki in assay [1] stood at 8 nM. For the same compound, the EC50 in assay [2] worked out at 15 nM.
With `CCNC(=O)Nc1ccc(-c2nc(N3CCOC[C@@H]3C)c3nc(-c4cncnc4)n(CC)c3n2)cc1` [Compound 107, (S)-1-ethyl-3-(4-(9-ethyl-6-(3-methylmorpholino)-8-(pyrimidin-5-yl)-9H-purin-2-yl)phenyl)urea], the IC50 in the assay with PC3 cells worked out at 112 nM. Moreover, the Ki in assay [1] stood at 3 nM. The EC50 in assay [2] came out at 7 nM.
In turn, `CCNC(=O)Nc1ccc(-c2nc(N3CCOC[C@@H]3C)c3nc(C4(F)COC4)n(C)c3n2)cc1` [Compound 108, (S)-1-ethyl-3-(4-(8-(3-fluorooxetan-3-yl)-9-methyl-6-(3-methylmorpholino)-9H-purin-2-yl)phenyl)urea] yielded an IC50 with PC3 cells of 232 nM. In addition, the Ki in assay [1] turned out to be 3 nM. The EC50 in assay [2] was 9 nM.
The compound `CCNC(=O)Nc1ccc(-c2nc(N3CCOC[C@@H]3C)c3nc(C4(F)COC4)n(CC)c3n2)cc1` [Compound 109, (S)-1-ethyl-3-(4-(8-(3-fluorooxetan-3-yl)-9-ethyl-6-(3-methylmorpholino)-9H-purin-2-yl)phenyl)urea] yielded an IC50 in the assay with PC3 cells of 218 nM. Moreover, the Ki in assay [1] was 3 nM. Also, the EC50 in assay [2] was 8 nM.
The corresponding values for `CCNC(=O)Nc1ccc(-c2nc(N3CCOC[C@@H]3C)c3nc(C4(F)CCOCC4)n(CC)c3n2)cc1` [Compound 110, (S)-1-ethyl-3-(4-(9-ethyl-8-(4-fluorotetrahydro-2H-pyran-4-yl)-6-(3-methylmorpholino)-9H-purin-2-yl)phenyl)urea] are 163 nM, 5 nM and 5 nM.
`CCNC(=O)Nc1ccc(-c2nc(N3CCOC[C@@H]3C)c3nc(C4(O)COC4)n(CC)c3n2)cc1` [Compound 111, (S)-1-ethyl-3-(4-(9-ethyl-8-(3-hydroxyoxetan-3-yl)-6-(3-methylmorpholino)-9H-purin-2-yl)phenyl)urea] yielded an IC50 with PC3 cells of 269 nM. The Ki in assay [1] worked out at 4 nM. Also, the concentration for a half-maximal effect (EC50) in assay [2] is 4 nM.
`CCn1c(C2CC2)nc2c(N3CCOC[C@@H]3C)nc(-c3ccc(Nc4cccc(=O)[nH]4)cc3)nc21` [Compound 112, (S)-6-(4-(8-cyclopropyl-9-ethyl-6-(3-methylmorpholino)-9H-purin-2-yl)phenylamino)pyridin-2(1H)-one] returned an IC50 in the assay with PC3 cells of 853 nM. Also, the Ki in assay [1] was 6 nM. For the same compound, the EC50 in assay [2] turned out to be 6 nM.
Turning to `CCn1c(C2CC2)nc2c(N3CCOC[C@@H]3C)nc(-c3ccc(NC(=O)NC4COC4)cc3)nc21` [Compound 113, (S)-1-(4-(8-cyclopropyl-9-ethyl-6-(3-methylmorpholino)-9H-purin-2-yl)phenyl)-3-(oxetan-3-yl)urea], in the assay on PC3 cells, the IC50 was determined as 1700 nM. Moreover, the Ki in assay [1] is 8 nM. Besides, the concentration giving a half-maximal response (EC50) in assay [2] turned out to be 8 nM.

The values are drawn from patent US8288381B2, “N-9 substituted purine compounds, compositions and methods of use” (Genentech, Inc., priority 2009, dated 2012).
